Reference: patent publication US11498930B2 (BLUERAY THERAPEUTICS (SHANGHAI) CO., LTD., priority 2018, dated 2022)
Read-outs that look alike come from different tables or passages of the source.

Experiments:
[1] = target: SHP2^E76A protein (Homo sapiens (Human), UniProt Q06124, E76A); assay: SHP2 enzyme activity inhibition experiment; format: biochemical
How it was run: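 Compounds tested at 10 concentrations in 3-fold serial dilution. IC50 from a four-parameter Hill-slope nonlinear fit of enzyme activity versus concentration.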

[2] = tested on: MOLM-13 cells; assay: MOLM-13 cell proliferation experiment; format: cell-based; details: Homo sapiens
Description: After 3 days, 5 µL of CellTiter-Glo reagent (Promega, ZG7572) was added to each well, and the plates were kept at room temperature in the dark for 10 minutes. The […] was detected by Spectra max i3 (Molecular Devices). The relative growth rate of the treated cells was compared with that of DMSO control.

[3] = tested on: phosphorylation level of intracellular protein kinase (ERK) in MOLM13 cells; assay: Phosphorylated protein kinase (p-ERK) cell experiment (AlphaLISA); format: cell-based; details: Homo sapiens, MOLM-13, MOLM13 cells
Description: The inhibitory activities of the compounds on the phosphorylation level of intracellular protein kinase (ERK) were determined by AlphaLISA method.
Firstly, the cells were treated with the compounds. The compounds to be tested were subjected to 3-fold dilution with 100% DMSO, and a total of 9 different concentration gradients were set. MOLM13 cells were then seeded into 96-well plates at a density of 30,000 cells per well in a volume of 100 µL per well. […] of DMSO or the test compounds with different concentrations was then transferred into each well, setting two duplicates for each concentration, and the final concentration of DMSO was controlled at 0.5%.
Secondly, the cells were lysed. After 2 hours of cell treatment, the medium was removed, and the cells were washed 3 times with phosphate buffered saline. 50 µL of freshly prepared lysis buffer was added to each well, and the plates were shaken and kept at room temperature for 10 minutes.
Thirdly, the phosphorylated extracellular signal-regulated kinase (p-ERK) was detected by AlphaLISA@ SureFire® Ultra™ p-ERK 1/2 (Thr202/Tyr204) kit (Perkin Elmer, ALSU-PERK-A10K). 10 µL of the above lysate was transferred to a 384-well plate (Perkin Elmer, 6005350), and the phosphorylation level of the extracellular signal-regulated kinase of the sample was detected according to the product instructions. The signal was read using AlphaScreen detector on Spectra max i3 (Molecular Devices). The percentage of inhibition (%) was calculated by the following formula: Inhibition percentage(%)=(1−p-ERK signal of compound-treated cells/p-ERK signal of DMSO-treated cells)*100

[4] = SHP2 enzyme activity, Tables 1.1 and 1.2, read-out: IC50
[5] = MOLM-13, 72 h, MOLM-13 cell proliferation, 3 days, Tables 3.1 and 3.2, read-out: IC50
[6] = p-ERK, 2 hours of cell treatment, Tables 2.1 and 2.2, read-out: IC50
[7] = Table 4, read-out: SHP2 enzyme activity IC50
[8] = MOLM-13, read-out: MOLM-13 cell proliferation IC50

Sequence of SHP2^E76A protein (Q06124 whole entry E76A): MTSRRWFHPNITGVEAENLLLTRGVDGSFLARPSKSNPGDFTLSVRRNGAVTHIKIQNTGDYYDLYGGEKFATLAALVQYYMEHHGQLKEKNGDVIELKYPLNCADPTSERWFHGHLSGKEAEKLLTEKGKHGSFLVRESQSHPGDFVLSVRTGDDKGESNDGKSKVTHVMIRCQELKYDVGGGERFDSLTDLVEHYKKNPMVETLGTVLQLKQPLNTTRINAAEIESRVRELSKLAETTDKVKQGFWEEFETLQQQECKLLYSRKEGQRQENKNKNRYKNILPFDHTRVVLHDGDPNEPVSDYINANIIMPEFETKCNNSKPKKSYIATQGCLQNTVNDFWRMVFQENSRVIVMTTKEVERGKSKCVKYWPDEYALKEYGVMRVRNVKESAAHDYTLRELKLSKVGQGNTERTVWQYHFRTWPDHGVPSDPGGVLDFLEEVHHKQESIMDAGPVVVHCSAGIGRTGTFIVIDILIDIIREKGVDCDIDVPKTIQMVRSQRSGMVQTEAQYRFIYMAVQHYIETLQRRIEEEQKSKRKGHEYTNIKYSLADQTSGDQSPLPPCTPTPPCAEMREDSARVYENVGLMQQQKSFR

| SMILES | IC50 [1, 4] [nM] | IC50 [2, 5] [nM] | IC50 [3, 6] [nM] | IC50 [1, 7] [nM] | IC50 [2, 8] [nM] | IC50 ([3]; Table 4, read-out: p-ERK IC50) [nM] |
| --- | --- | --- | --- | --- | --- | --- |
| N[C@@H]1CC(F)(F)CC12CCN(c1ncc(Sc3cccc(Cl)c3Cl)c3nccn13)CC2 [(R)-8-(8-((2,3-dichlorophenyl)thio)imidazo[1,2-c]pyrimidin-5-yl)-3,3-difluoro-8-azaspiro[4.5]decan-1-amine] | < 100 | 100 to 1000 | 100 to 1000 |  |  |  |
| N[C@@H]1CCCC12CCN(c1ncc(Sc3cccc(Cl)c3Cl)c3nccn13)CC2 [(R)-8-(8-((2,3-dichlorophenyl)thio)imidazo[1,2-c]pyrimidin-5-yl)-8-azaspiro[4.5]decan-1-amine] | < 100 | 100 to 1000 | 100 to 1000 |  |  |  |
| N[C@@H]1CCCC12CCN(c1ncc(Sc3ccnc(Cl)c3Cl)c3nncn13)CC2 [(R)-8-(8-((2,3-dichloropyridin-4-yl)thio)-[1,2,4]triazolo[4,3-c]pyrimidin-5-yl)-8-azaspiro[4.5]decan-1-amine] | < 100 | 100 to 1000 | 1000 to 10000 |  |  |  |
| N[C@@H]1CCCC12CCN(c1ncc(Sc3ccnc(Cl)c3Cl)c3nccn13)CC2 [(R)-8-(8-((2,3-dichloropyridin-4-yl)thio)imidazo[1,2-c]pyrimidin-5-yl)-8-azaspiro[4.5]decan-1-amine] | < 100 | < 100 | 100 to 1000 | 57 | 42 | 159 |
| N[C@@H]1CCCC12CCN(c1ncc(Sc3cccnc3C(F)(F)F)c3nncn13)CC2 [(R)-8-(8-((2-(trifluoromethyl)pyridin-3-yl)thio)-[1,2,4]triazolo[4,3-c]pyrimidin-5-yl)-8-azaspiro[4.5]decan-1-amine] | 100 to 1000 | 100 to 1000 | 1000 to 10000 |  |  |  |
| N[C@@H]1CCCC12CCN(c1ncc(Sc3cccnc3C(F)(F)F)c3nccn13)CC2 [(R)-8-(8-((2-(trifluoromethyl)pyridin-3-yl)thio)imidazo[1,2-c]pyrimidin-5-yl)-8-azaspiro[4.5]decan-1-amine] | < 100 | 100 to 1000 | 100 to 1000 |  |  |  |
| Nc1nccc(Sc2cnc(N3CCC4(CCC[C@H]4N)CC3)n3ncnc23)c1Cl [(R)-8-(8-((2-amino-3-chloropyridin-4-yl)thio)-[1,2,4]triazolo[1,5-c]pyrimidin-5-yl)-8-azaspiro[4.5]decan-1-amine] | 100 to 1000 | 100 to 1000 | 1000 to 10000 |  |  |  |
| Nc1nccc(Sc2cnc(N3CCC4(CCC[C@H]4N)CC3)n3ccnc23)c1Cl [(R)-8-(8-((2-amino-3-chloropyridin-4-yl)thio)imidazo[1,2-c]pyrimidin-5-yl)-8-azaspiro[4.5]decan-1-amine] | < 100 | 100 to 1000 | 100 to 1000 | 20 | 270 | 410 |
| Nc1cc(Sc2cnc(N3CCC4(CCC[C@H]4N)CC3)n3ccnc23)c(Cl)cn1 [(R)-8-(8-((2-amino-5-chloropyridin-4-yl)thio)imidazo[1,2-c]pyrimidin-5-yl)-8-azaspiro[4.5]decan-1-amine] | < 100 | < 100 | < 100 | 25 | 43 | 32 |
| N[C@@H]1CCCC12CCN(c1ncc(Sc3ccccc3Cl)c3nncn13)CC2 [(R)-8-(8-((2-chlorophenyl)thio)-[1,2,4]triazolo[4,3-c]pyrimidin-5-yl)-8-azaspiro[4.5]decan-1-amine] | 100 to 1000 | 100 to 1000 | 100 to 1000 | 140 | 485 | 548 |
| COc1ccccc1Sc1cnc(N2CCC3(CCC[C@H]3N)CC2)n2ccnc12 [(R)-8-(8-((2-methoxyphenyl)thio)imidazo[1,2-c]pyrimidin-5-yl)-8-azaspiro[4.5]decan-1-amine] | < 100 | 100 to 1000 | 100 to 1000 | 83 | 210 | 469 |
| N[C@@H]1CCCC12CCN(c1ncc(Sc3ccncc3C(F)(F)F)c3nccn13)CC2 [(R)-8-(8-((3-(trifluoromethyl)pyridin-4-yl)thio)imidazo[1,2-c]pyrimidin-5-yl)-8-azaspiro[4.5]decan-1-amine] | < 100 | 100 to 1000 | 100 to 1000 |  |  |  |
